Values of other authors, collected in patent US20150246061A1, “VITAMIN D ANALOGUES FOR THE TREATMENT OF A NEUROLOGICAL DISORDER” (CELUS PHARMACEUTICALS, INC., priority 2012, published 2015).

Settings: adult humans, longer treatment periods

Compound: C=C1/C(=C\C=C2/CCC[C@]3(C)C([C@@H](C)C/C=C/C(O)(CC)CC)=CC[C@@H]23)C[C@@H](O)C[C@@H]1F [Elocalcitol, elocalcitol]
- daily dose up to which elocalcitol has been shown to be safe: ≤ 150 µg
